Laboratory results published in US20230240290A1, “USE OF (Z)-3-HEXENYL ESTERS AND METHOD FOR PROTECTING PLANTS AGAINST PESTS” (UNIVERSITAT POLITÈCNICA DE VALÈNCIA, priority 2020, published 2023).

Columns and labels:
Tetranychus urticae = assay: Development of Tetranychus urticae on exposed tomato plants; type: in vivo; settings: T. urticae, 21 days after release
Method: It was also studied whether the defensive activation induced by exposure to (Z)-3-hexenyl propanoate could influence the development of two highly important phytophages in tomato cultivation, the red spider, T. urticae, and the lepidoptera T. absoluta. The individuals used in these experiments came from the captive breeding of these species that are kept in the IVIA described above. The exposure time of the plant to the volatile was tested on both phytophages in two different ways, one where the plant was only exposed to the volatile for 24 hours and then the herbivore to be assayed was immediately released, and the other where the volatile was permanently exposed throughout the experiment.
For this purpose, two climatic chambers were used under the same environmental conditions [25±2° C., 65±5% HR and 14:10 h (L:D) photoperiod], wherein, to avoid interference between the volatiles, one was assigned to the (Z)-3-hexenyl propanoate treatments and one to the control treatment. […]
Eight tomato plants (Lycopersicon esculentum cv. Moneymaker) were introduced in each cage. […] Naked eye sampling was carried out seven, 14, and 21 days after the release of T. urticae, where the total number of T. urticae females in each plant was counted.

[1] = Emission kinetics of the dispenser (gravimetric method); type: physicochemical; settings: 4-mL LD polyethylene vial loaded with 4 ml, field conditions; slope of the fitted model
Method: Two different types of polymeric emitters were used to test the activation level that different emission levels of (Z)-3-hexenyl propionate can provide: 4-mL low-density (LD) polyethylene vial and 4-mL high-density (HD) polyethylene vial. The highest emission level (5 mg/day) was achieved through previous laboratory studies with LD dispensers loaded with 20 mg of the pure substance. The lowest emission level (0.01 mg/day) was provided by HD vials loaded with a 1:100 mixture of (Z)-3-hexenyl propionate and paraffinic oil (0.02:2; g:g). The emission kinetics of the emitters used during the experiments was controlled by studying weight loss (gravimetric method). Additional dispensers were placed in the same environmental conditions, measuring their weight weekly with a precision scale (0.0001 g). The difference in weight recorded in each period will be the emitted quantity of the substance for each type of dispenser. To obtain the mean emission level of each dispenser, the recorded weights (y) are related to the aging time (x) using a multiple regression analysis.
As mentioned earlier, 2 zones were selected in each of the greenhouses in which, on 22 Feb. 2019, a dispenser (4-ml low-density (LD) polyethylene vial) loaded with 4 ml of (Z)-3-hexenyl was hung every 20 m^2 in one of them, and the other with the same surface area was used as a control treatment. […]

Tuta absoluta = settings: in vivo
Method: Two consecutive experiments were performed to assess the effect of exposure to both volatiles on T. absoluta. The first experiment studied the effect on the laying of T absoluta. The selected eggs laid in the first experiment were later used in the second experiment to study the mortality of immature T. absoluta specimens developed in plants exposed to (Z)-3-hexenyl propanoate. The same three treatments described above for T. urticae were also assayed for T. absoluta. The laying of T. absoluta was assessed in 8 tomato plants (cv. Moneymaker) per treatment. Each of the plants was isolated inside a plastic cage (60×60×60 cm) (BugDorm-2) and kept in a climatic chamber at 25±2° C., 65±5% HR, 14:10 (L:D) h photoperiod following the same assay distribution described for T. urticae. Inside each cage (replica), 2 adult pairs were released from T. absoluta (males and females) and left undisturbed for 72 hours. After this time, T. absoluta adults were removed, and the number of eggs was counted.
To study the mortality of T. absoluta in the plants exposed to the 3 treatments described above, 6 T. absoluta eggs per plant were equally distributed on all the leaves with the help of a fine brush. […] Mortality of T. absoluta was assessed in 8 tomato plants (cv. Moneymaker) per treatment. […] As soon as the adults began to emerge, they were counted and removed daily from the cages.

CC/C=C\CCOC(=O)CC [(Z)-3-hexenyl propanoate]
Reduction in the number of mites per plant with respect to the control (Tetranychus urticae; plant exposed for 24 h before release): 50.3±6.3% | Reduction in the number of mites per plant with respect to the control (Tetranychus urticae; plant exposed throughout the entire experiment): 83.9±5.0% | Mean emission rate from the dispenser [1]: 12.2 mg/day | Mortality from T. absoluta egg to adult (Tuta absoluta): around 80%
